Experimental data taken from patent publication US20250166176A1, “METHODS AND MATERIALS FOR IMAGING ADIPOSE TISSUE” (CellSight Technologies Inc., priority 2022, published 2025).

Legend:
Assay type in all cases: in vivo
[1] = tested on: intrascapular BAT (iBAT); assay: [18F]F-AraG and FDG PET imaging of BAT in mice treated with BRL37344, insulin or vehicle
[2] = tested on: iBAT; assay: [18F]F-AraG PET imaging of iBAT in mice with GBM tumors; conditions: one GBM mouse with highest neuroinflammation
From the text: During our studies into the utility of ^18F-AraG in assessing intracranial T cell infiltration in glioblastoma multiforme (GBM) we made the unexpected and surprising discovery that ^18F-AraG can also image and/or assess the activation of adipose tissue (FIG. 2). Adipose, or fat, tissue (AT) was once considered an inert tissue that primarily existed to store lipids, and was not historically recognized as an important organ in the regulation and maintenance of health. With the rise of obesity and more rigorous research, AT is now recognized as a highly complex metabolic organ involved in a host of important physiological functions, including glucose homeostasis and a multitude of endocrine capabilities. […] The study of AT can provide useful insights in developing strategies to combat these highly prevalent metabolic diseases.
[^18F]F-AraG ability to track stimulated adipocytes allowed observation of activated iBAT in mice with bioluminescently-tagged GBM tumors. The activation occurred at different time points and varied in intensity.

[3] = tested on: BAT and marrow adipose tissue; assay: [18F]F-AraG PET imaging after chronic dosing with BRL37344; conditions: mice, 3 days+1 h prior to imaging

| Compound | [18F]F-AraG uptake in iBAT ([1]; control animals) [% ID/g] | [18F]F-AraG uptake in iBAT ([1]; insulin-treated mice) [% ID/g] | accumulation of [18F]F-AraG in intrascapular BAT (iBAT) ([1]; mice, BRL37344 administered one hour prior to imaging) [% ID/g] | iBAT [18F]F-AraG signal ([2]; OnTx3) [% ID/g] | iBAT [18F]F-AraG signal ([2]; PreTx) [% ID/g] | effect of chronic dosing on [18F]F-AraG signal (in words) [3] |
| --- | --- | --- | --- | --- | --- | --- |
| Nc1nc2c(ncn2[C@@H]2O[C@H](CO)[C@@H](O)[C@@H]2[18F])c(=O)[nH]1 [[^18F]F-AraG, [18F]-F-arabinofuranosyl guanine] | 4.11±0.76 | 3.36±0.62 | 10.98±1.64 | 14.92 | 1.70 |  |
| C[C@H](Cc1ccc(OCC(=O)O)cc1)NC[C@H](O)c1cccc(Cl)c1 [BRL37344] |  |  |  |  |  | increase in [^18F]F-AraG signal not only in the classical, intrascapular BAT. but also in lumbar spinal cord and proximal tibia |
